The conditions of data set [1]: 298 K; 101 kPa; Crystal; X-ray diffraction.
Data set [2] can be described thus: xn = mol fraction of the nth substance listed. Particulars: 298 K, Crystal, X-ray diffraction.
The nature of data set [3]: excess molar enthalpy (molar enthalpy of mixing); xn = mol fraction of the nth substance listed. Particulars: 298 K, 100 kPa, Crystal, Calvet calorimetry.

The record followed here is the NIST ThermoML archive (doi:10.1016/j.jct.2016.11.003).

Molecules are shown by their SMILES. Numbers after ± are expanded uncertainties.

As to `O=P([O-])([O-])[O-].[Eu+3]` [europium phosphate], in data set [1], the mass density (commonly the mass of a sample divided by its volume) is listed as 5810 ± 40 kg/m3.

For `O=P([O-])([O-])[O-].[Eu+3]` [europium phosphate] + O=P([O-])([O-])[O-].[La+3], the mass density is 5130 ± 30 kg/m3 in data set [2] (101 kPa, x1 = 0.11); 5210 ± 30 kg/m3 in data set [2] (101 kPa, x1 = 0.23); 5340 ± 30 kg/m3 in data set [2] (101 kPa, x1 = 0.4); 5470 ± 30 kg/m3 in data set [2] (101 kPa, x1 = 0.58); 5570 ± 30 kg/m3 in data set [2] (101 kPa, x1 = 0.71); 5660 ± 30 kg/m3 in data set [2] (101 kPa, x1 = 0.82). For the same compound, the mass density in data set [2] (101 kPa, x1 = 0.91) is listed as 5730 ± 30 kg/m3; in data set [2] (101 kPa, x1 = 1), 5810 ± 40 kg/m3. The excess molar enthalpy in data set [3] (x1 = 0.1) was determined as 1.89 ± 1.8 kJ/mol; in data set [3] (x1 = 0.11) it was 0.98 ± 1.6 kJ/mol; in data set [3] (x1 = 0.34) it was 0.54 ± 1.3 kJ/mol; in data set [3] (x1 = 0.58), 0.85 ± 1.4 kJ/mol; in data set [3] (x1 = 0.71), 0.2 ± 1.1 kJ/mol.

Take `O=P([O-])([O-])[O-].[Gd+3]` [gadolinium orthophosphate]: in data set [1], the mass density is reported as 5980 ± 40 kg/m3.

Turning to `O=P([O-])([O-])[O-].[Gd+3]` [gadolinium orthophosphate] + O=P([O-])([O-])[O-].[La+3], the mass density in data set [2] (100 kPa, x1 = 0.11) came to 5160 ± 30 kg/m3; in data set [2] (100 kPa, x1 = 0.24), 5260 ± 30 kg/m3; in data set [2] (100 kPa, x1 = 0.34), 5340 ± 30 kg/m3; in data set [2] (100 kPa, x1 = 0.44), 5440 ± 40 kg/m3; in data set [2] (100 kPa, x1 = 0.55), 5540 ± 30 kg/m3; in data set [2] (100 kPa, x1 = 0.64), 5630 ± 30 kg/m3. The mass density came to 5740 ± 40 kg/m3 in data set [2] (100 kPa, x1 = 0.76); 5820 ± 40 kg/m3 in data set [2] (100 kPa, x1 = 0.84); 5900 ± 40 kg/m3 in data set [2] (100 kPa, x1 = 0.92); 5980 ± 40 kg/m3 in data set [2] (100 kPa, x1 = 1). Further, the excess molar enthalpy came out at 1.15 ± 1.2 kJ/mol in data set [3] (x1 = 0.24), 3.25 ± 1.2 kJ/mol in data set [3] (x1 = 0.44), 2.95 ± 1.3 kJ/mol in data set [3] (x1 = 0.55) and 2.18 ± 1 kJ/mol in data set [3] (x1 = 0.76).

As to `O=P([O-])([O-])[O-].[La+3]` [lanthanum orthophosphate], the mass density in data set [1] turned out to be 5060 ± 30 kg/m3.

`O=P([O-])([O-])[O-].[La+3]` [lanthanum orthophosphate] + O=P([O-])([O-])[O-].[Eu+3]: the mass density in data set [2] (101 kPa, x2 = 0) is given as 5060 ± 30 kg/m3.

As to `O=P([O-])([O-])[O-].[La+3]` [lanthanum orthophosphate] + O=P([O-])([O-])[O-].[Gd+3], in data set [2] (100 kPa, x2 = 0), the mass density is given as 5060 ± 30 kg/m3.
